According to patent publication US9296716B2, “Androgen receptor ligands” (THE PROVOST, FELLOWS, FOUNDATION SCHOLARS, & THE OTHER …, priority 2011, dated 2016):
Residue numbers refer to the chain shown, from its start. Like-named read-outs stand apart in the source and are kept apart here.

What was measured:
[1] = target: T1, AR-LBD wt (Homo sapiens, UniProt P10275); test: Lanthascreen TR-FRET AR coactivator (D11-FxxLF) assay, AR-LBD wt; type: biochemical; conditions: for IC50: TR-FRET, D11-FxxLF peptide, DHT = EC80
T1 sequence (P10275 669-900 limits assumed): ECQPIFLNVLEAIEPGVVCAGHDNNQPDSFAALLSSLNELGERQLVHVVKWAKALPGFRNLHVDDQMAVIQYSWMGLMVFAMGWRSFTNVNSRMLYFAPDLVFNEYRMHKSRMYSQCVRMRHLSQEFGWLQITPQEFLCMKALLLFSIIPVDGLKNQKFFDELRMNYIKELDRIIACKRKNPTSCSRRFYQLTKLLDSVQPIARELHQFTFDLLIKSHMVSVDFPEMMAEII

[2] = target: T2, AR-LBD T877A mutant (Homo sapiens, UniProt P10275, T878A); test: TR-FRET coactivator assay, AR T877A mutant; type: biochemical; conditions: D11-FxxLF peptide, DHT = EC80
T2 construct: purchased Invitrogen PV4667
T2 sequence (P10275 669-900 T878A): T1 sequence (P10275 669-900 limits assumed) with T210A

[3] = target: T3, Estrogen Receptor alpha (ER-α) LBD (Homo sapiens, UniProt P03372); test: TR-FRET PGC1-α coactivator recruitment assay, ERα LBD; type: biochemical; conditions: Estradiol = EC80
T3 sequence (P03372 311-547 limits assumed): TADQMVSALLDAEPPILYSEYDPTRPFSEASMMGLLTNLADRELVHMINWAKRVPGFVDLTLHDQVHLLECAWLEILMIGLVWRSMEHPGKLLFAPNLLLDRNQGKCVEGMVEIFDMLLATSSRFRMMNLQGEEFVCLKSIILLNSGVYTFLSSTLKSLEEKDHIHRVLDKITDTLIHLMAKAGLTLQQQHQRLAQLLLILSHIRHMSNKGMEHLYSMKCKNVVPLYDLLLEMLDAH
Method: Compound binding affinities for Progesterone Receptor (PR), Glucocorticoid Receptor (GR), Estrogen Receptor alpha and Estrogen Receptor beta were determined using TR-FRET (Table 2).
Selectivity of the diarylhydrazide scaffold for the AR was determined through a TR-FRET assay in ERα (FIGS. 8A & 9A1) and ERR (FIGS. 8B & 9A2). […] The non-LBP nature of this inhibition was confirmed by a FP assay (FIGS. 9C, 9B1 & 9B2).
Lanthascreen TR-FRET AR Coactivator Assay kit (Invitrogen, cat no. PV4381) was used to screen for potential coactivator disruptors.
TR FRET values were calculated at 10 flashes per well, using a delay time of 100 μs and integration time 200 μs as recommended by the Invitrogen assay guidelines. […] A serial dilution of compounds was firstly prepared in 100×DMSO (Sigma-Aldrich) starting from the maximum desired concentration to achieve a 12 point range concentration using 96-well polypropylene plates (Nalgene Nunc, Rochester, N.Y.). Each 100× solution was diluted to 2× concentration with TR-FRET co-regulator buffer A (Invitrogen proprietary buffer), yielding a final concentration of 1% DMSO in each well.
D11-FxxLF and Tb antibody were premixed in light protecting vials prior to use. A final concentration of DTT 5 mM was used in the assay buffer in order to prevent protein degradation. All plates (agonist and antagonist mode) were incubated between 2 and 4 hours at room temperature protected from light prior to TR-FRET measurement. […] Data was fitted using the sigmoidal dose response (variable slope) available from Graphpad Prism 5. Y=Bottom+(Top-Bottom)/(1+10^((Log IC50−X)*HillSlope))
The same procedure was used for AR T877A (Invitrogen cat no. PV4667), PR (Invitrogen cat no. PV4666), ER-α (Invitrogen cat no. PV4544), ER-β (Invitrogen cat no. PV4541) and GR (Invitrogen cat no. PV4683). The assay was adapted to exclude possible non-specific aggregation mechanism of inhibition by adding very low concentration of detergent Triton X-100 (0.001%) to the assay buffer following the Shoichet review guidelines [Shoichet BK (2006) Screening in a spirit haunted world. Drug Discov Today 11:607-615].

[4] = system: LNCaP cells; test: LNCaP cell proliferation assay (androgen deprived, AlamarBlue); type: cell-based; conditions: LNCaP
Method: To determine the optimal DHT concentration and length of treatment required for cell proliferation assays, we tested a range of DHT concentrations in 0.1% DMSO for 5 or 7 days in LNCaP cells cultured in FBS stripped phenol red free media. […] Media and treatments were replaced every second incubation day (FIGS. 12 A and B)
For cell viability (end point) assays LNCaP, PC-3 and PWR-1E cells were seeded at 2.5*10^4/ml density in 200 μl volume of a 96-well plate in triplicate and incubated for 24 hours prior testing. Test compounds were included at different concentrations to achieve a final concentration of 0.5% DMSO in each well. Effect of 0.5% DMSO on cell-viability was also evaluated. Cell viability was assessed after 24 hours of treatment using 10% Alamar Blue reagent (Invitrogen) for each well. Cell viability was monitored by the reduction of resazurin, a blue, cell-permeable and non-toxic compound, to resorufin, a red and highly fluorescent product. Viable cells continuously convert resazurin to resorufin, increasing the overall colour and fluorescence of the media surrounding cells. Fluorescence intensity can be quantitatively determined with a fluorescence microplate reader at excitation/emission 544 nm/590 nm (Spectramax Gemini). For hormone dependent cell proliferation assays in androgen deprived LNCaP cells, cells were seeded at 2*10^4 cells/ml in a 24-well plate in triplicate. Cells were plated in phenol red free RPMI Glutamax (Invitrogen) supplemented with 10% charcoal-stripped FBS to deplete endogenous steroids 48 hours prior the assay as described in previous reports. […] Cells were treated with different concentrations of test compounds with or without 0.1 nM DHT to achieve a final concentration of 0.1% DMSO in each well. A control for the vehicle was included to ensure no effect on viability could be detected. Media and treatments were replaced every second day, after washing the cells twice with 1×PBS. Supernatants were collected after five days for secreted PSA levels evaluation and cell proliferation was assessed for the same plate using Alamar Blue in order to exclude non-specific effects due to toxicity issues.

[5] = system: 22Rv1 cells; test: 22Rv1 cell proliferation assay; type: cell-based
Method: Thus, inhibition on cell proliferation by the compounds could not be evaluated (FIG. 14)
We repeated the same experiment in 22Rv1 cell line.
For cell viability (end point) assays LNCaP, PC-3 and PWR-1E cells were seeded at 2.5*10^4/ml density in 200 μl volume of a 96-well plate in triplicate and incubated for 24 hours prior testing. Test compounds were included at different concentrations to achieve a final concentration of 0.5% DMSO in each well. Effect of 0.5% DMSO on cell-viability was also evaluated. Cell viability was assessed after 24 hours of treatment using 10% Alamar Blue reagent (Invitrogen) for each well. Cell viability was monitored by the reduction of resazurin, a blue, cell-permeable and non-toxic compound, to resorufin, a red and highly fluorescent product. Viable cells continuously convert resazurin to resorufin, increasing the overall colour and fluorescence of the media surrounding cells. Fluorescence intensity can be quantitatively determined with a fluorescence microplate reader at excitation/emission 544 nm/590 nm (Spectramax Gemini). […] A control for the vehicle was included to ensure no effect on viability could be detected. […] Supernatants were collected after five days for secreted PSA levels evaluation and cell proliferation was assessed for the same plate using Alamar Blue in order to exclude non-specific effects due to toxicity issues.

COc1cc(/C=N/NC(=O)c2cc3c(ccc4ccccc43)o2)cc(OC)c1O [MDG506]
type of AR antagonism (full / partial) ([1]; TR-FRET in agonist and antagonist mode): full AR antagonists
IC50 ([1]; read-out: AR (wt)): 26.3 ± 3.8 µM
IC50 ([1]; read-out: Activity (AR wt TR-FRET)): 26.3 ± 3.8 µM
IC50 [2]: 33.2 ± 5.9 µM
effect on ERα recruitment of fluorescent labelled PGC1-α ([3]; 100 μM to 45 nM): partially inhibit
IC50 ([3]; TR-FRET, ± SEM (n = 6), read-out: NR LBDs IC50 (μM) ER-α): > 100 µM
DHT dependent cell proliferation ([4]; DHT 0.1 nM, 5 days): clear dose dependent effect in reducing
CPA induced cell proliferation ([4]; MDG506 at 10 or 20 μM): reduces
cell proliferation in absence of DHT / androgens ([4]; androgen deprived media, no DHT): does not induce
cell proliferation in absence of androgens [5]: does not induce
